This note sets out measurements from US10328075B2, “Method of treatment and compounds for use therein” (Baker Heart and Diabetes Institute, priority 2015, dated 2019).

Molecules are shown by their SMILES.

For test [1], the target named is T1, hFPR2 (Homo sapiens, UniProt P25090).
T1 construct: expressed in transfected cells
T1 sequence (P25090 1-351): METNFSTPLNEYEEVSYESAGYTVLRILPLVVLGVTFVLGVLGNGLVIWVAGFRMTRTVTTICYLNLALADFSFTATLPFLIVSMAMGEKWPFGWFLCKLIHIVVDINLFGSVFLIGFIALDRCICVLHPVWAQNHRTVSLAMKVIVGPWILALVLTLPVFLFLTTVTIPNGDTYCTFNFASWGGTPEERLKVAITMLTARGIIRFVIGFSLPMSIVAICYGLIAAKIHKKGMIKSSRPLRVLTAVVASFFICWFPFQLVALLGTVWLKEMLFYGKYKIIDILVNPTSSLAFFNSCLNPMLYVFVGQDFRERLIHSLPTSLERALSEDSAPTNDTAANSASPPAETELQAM
The test can be described thus: Akt1/2/3 (Ser473) phosphorylation in hFPR2-FlpIn-CHO cells. The class given is cell-based. The following applies: for ΔLog(τ/KA), Akt 1/2/3 (Ser473) phosphorylation, hFPR2-Flpln-CHO: normalized transduction coefficient, reference agonist Cmpd43; for Log(τ/KA), Akt 1/2/3 (Ser473) phosphorylation, hFPR2-Flpln-CHO: transduction coefficient. The text has this:
(§1) cDNDA construct and generation of stable cell lines: cDNA in pcDNA3.1^+ encoding the human formyl peptide receptors (FPR) subtypes, hFPR1, hFPR2 and hFPR3 was obtained from Invitrogen. The sequences for 3 hFPR receptors were amplified by PCR and cloned into the Gateway entry vector, pDONR202™, using the BP clonase enzyme mix, according to the manufactures' instructions (Invitrogen Inc, Carlsbad, Calif., USA). All hFPR receptors constructs in pDONR201™ were subsequently transfected into the pEF5/FRT/V5/dest vector using the LR clonase enzyme mix (Invitrogen). Receptor constructs (pEF5/FRT/V5/dest) were used to transfect FIp-In CHO cells as described previously (Valant C et al., PNAS, 2014). Cells were selected using 500 μg/mL hydromycin to generate cell lines stably expressing each receptor construct. Cells were maintained and cultured in high glucose DMEM supplemented with 10% FBS, 16 mM HEPES and 500 μg/mL hydromycin at 37° C. under a humidified atmosphere containing 5% CO2.
(§2) In the various assays described below, cells were plated into 96-well transparent cell culture plates at 4×10^4 cells per well, cultured overnight in serum-free media at 37° C. in 5% CO2.
Measurement of Akt1/2/3 phosphorylation and Akt 1: The same lysate was used for measurement of Akt1/2/3 phosphorylation (Ser473) and Akt1 (Thr308). Cells were lysed in SureFire lysis buffer and transferred to 384-well opaque proxiplates. Under low-light conditions, a 1:10:40 (v:v:v) dilution of AlphaScreen acceptor beads:Surefire activation buffer:Surefire reaction buffer was prepared and the plate was incubated in the dark at RT for 2 h. Then, a 1:20 (v:v) dilution of AlphaScreen donor beads/dilution was prepared and incubated in the dark at RT for another 2 h, before the fluorescence signal was measured by used of a Fusion-α plate reader (PerkinElmer Life and Analytical Sciences) with standard AlphaScreen settings. Receptor mediated phosphorylation of Akt1/2/3 (Ser473) and Akt1 (Thr308) were determined using the AlphaScreen™ […] SureFire™ kit, as per as per manufacturer's instructions. Data were normalized to the maximal response elicited by 10% (v:v) FBS at the same time point.
(§3) Data analysis: All data were analysed using GraphPad Prism 6.0 (GraphPad Software, San Deigo, Calif., USA). Where appropriate, concentration-response curves were fitted to derive the maximal agonist effect (Emax), and the ligand potency estimate (pEC50), where Emax is the maximal possible response of the system (not the agonist), basal is the basal level of response in the absence of agonist, and pEC50 is the negative logarithm of the agonist concentration that gives a response halfway between Emax and basal.
(§4) In the present study, FIp-IN CHO cells and Gateway plasmid were obtained from Invitrogen Inc (Carlsbad, Calif., USA). The sequences for all 3 known human FPRs (hFPR1, hFPR2 and hFPR3) were amplified by PCR and cloned into the Gateway entry vector, pDONR202TM, using the BP clonase enzyme mix, according to the manufacturers' instructions. The hFPR pDONR201TM constructs were subsequently transfected into the pEF5/FRT/V5/dest vector using the LR clonase enzyme mix (Invitrogen). Receptor constructs (pEF5/FRT/V5/dest) were used to transfect FIp-IN CHO cells, as described previously (Valant et al. 2014). Cells were selected using 500 μg/mL hydromycin to generate cell lines stably expressing each human receptor construct. Cells were maintained and cultured in high glucose Dulbecco's modified eagle medium (DMEM) supplemented with 10% fetal bovine serum (FBS, from JRH Biosciences, Lenexa, Kans., USA) and 500 μg/mL hydromycin B (Invitrogen Inc) at 37° C. under a humidified atmosphere containing 5% CO2. Cell were plated into 96-well transparent cell culture plates at 4×10^4 cells per well, cultured overnight in serum-free media at 37° C. in 5% CO2.

The target in test [2] is T1, hFPR2. The experiment in a line: [Ca2+]i mobilization in FlpIn-CHO cells stably expressing hFPR2. The class given is cell-based. The conditions noted are these: for Emax: Flp-In-CHO; for EC50: read-out: pEC50, [Ca^2+]i mobilization, hFPR2-Flpln-CHO (converted); for ΔLog(τ/KA), [Ca^2+]i mobilization, hFPR2-Flpln-CHO: normalized transduction coefficient, reference agonist Cmpd43; for Log(τ/KA), [Ca^2+]i mobilization, hFPR2-Flpln-CHO: transduction coefficient.
Source text: as §1, §2
Intracellular calcium mobilization: Intracellular calcium mobilization was assayed as described previously (Keov, P et al., 2014). Briefly, cells were washed once using HEPES buffered saline (HBS) solution [150 mM NaCl, 2.2 mM CaCl2, 2.6 mM KCl, 1.2 mM MgCl2, 10 mM HEPEs, 10 mM D-Glucose, 0.5% (w/v) bovine serum albumin (BSA) and 4 mM probenecid] at pH 7.4, then treated with Fluo-4-AM (1 μM, in HBS/BSA/probenecid) for 60 min at 37° C. in 5% CO2 in the dark. Cells were then further washed and placed in HBS/BSA/probenecid solution for ligation addition and assay using the FLEXstation 3 plate reader (Molecular Devices, Sunnyvale, Calif.). For all experiments, peak change in fluorescence signal was normalized to the cellular response to 100 μM ATP, which was used as an internal positive control.
as §3, §4
(ii) Intracellular Ca2+ mobilization: Intracellular Ca2+ mobilization was determined in stably-transfected recombinant hFPR CHO cells, as described previously (Valant et al. 2014).

The mark [3] stands for this setting: Table 3, percentage of Akt1/2/3 phosphorylation elicited by 10% FBS, read-out: Emax (%), Akt 1/2/3 (Ser473), hFPR2-Flpln-CHO.
[4] abbreviates: Table 8, percent of response elicited by 10% FBS, read-out: Emax, Akt 1/2/3 (Ser473) phosphorylation, hFPR2-Flpln-CHO.
The mark [5] stands for this setting: Table 1, percentage of [Ca^2+]i mobilization elicited by ATP, read-out: Emax (%), [Ca^2+]i mobilization, hFPR2-Flpln-CHO.
Setting [6] is: Table 8, percent of response elicited by ATP, read-out: Emax, [Ca^2+]i mobilization, hFPR2-Flpln-CHO.

For `CC(C)C1C(NC(=O)Nc2ccc(Cl)cc2)C(=O)N(c2ccccc2)N1C` (stereo not drawn) [BIDI-002], the Emax at hFPR2 [1] (setting [3]) amounted to 30 ± 6%; on hFPR2 [1] (setting [4]) it was 30 ± 6%; on hFPR2 [2] (setting [5]) it was 51 ± 3%; at hFPR2 [2] (setting [6]) it was 51 ± 3%. The EC50 on hFPR2 [1] (Table 3, read-out: pEC50, Akt 1/2/3 (Ser473), hFPR2-Flpln-CHO (converted)) was 145 nM; on hFPR2 [1] (Table 8, read-out: pEC50, Akt 1/2/3 (Ser473) phosphorylation, hFPR2-Flpln-CHO (converted)), 158 nM; at hFPR2 [2] (Table 1) it was 20.9 nM; at hFPR2 [2] (Table 8), 20 nM. Moreover, the “ΔLog(τ/KA), Akt 1/2/3 (Ser473) phosphorylation, hFPR2-Flpln-CHO” value on hFPR2 [1] (Table 8) was 0.0. For the same compound, the “Log(τ/KA), Akt 1/2/3 (Ser473) phosphorylation, hFPR2-Flpln-CHO” value on hFPR2 [1] (Table 8) is given as 6.9 ± 0.4. Also, the “ΔLog(τ/KA), [Ca^2+]i mobilization, hFPR2-Flpln-CHO” value at hFPR2 [2] (Table 8) stood at 0.0. Further, the “Log(τ/KA), [Ca^2+]i mobilization, hFPR2-Flpln-CHO” value on hFPR2 [2] (Table 8) stood at 7.7 ± 0.3.

As to `CSCC[C@H](NC=O)C(=O)N[C@@H](CC(C)C)C(=O)N[C@@H](Cc1ccccc1)C(=O)O` [fMLP, N-formyl-Met-Leu-Phe], the Emax at hFPR2 [1] (setting [3]) was 13 ± 4%; on hFPR2 [1] (setting [4]) it was 20 ± 4%; on hFPR2 [2] (setting [5]), 38 ± 4%; on hFPR2 [2] (setting [6]), 38 ± 4%. Moreover, the “ΔLog(τ/KA), Akt 1/2/3 (Ser473) phosphorylation, hFPR2-Flpln-CHO” value at hFPR2 [1] (Table 8) is −2.0 ± 0.2. Moreover, on hFPR2 [1] (Table 8), the “Log(τ/KA), Akt 1/2/3 (Ser473) phosphorylation, hFPR2-Flpln-CHO” value came to 4.9 ± 0.2. In addition, on hFPR2 [2] (Table 8), the “ΔLog(τ/KA), [Ca^2+]i mobilization, hFPR2-Flpln-CHO” value is listed as −2.2 ± 0.3. The “Log(τ/KA), [Ca^2+]i mobilization, hFPR2-Flpln-CHO” value at hFPR2 [2] (Table 8) is reported as 5.4 ± 0.1. Further, the “Potency range of Ca^2+ mobilization in hFPR2-CHO cells” value on hFPR2 [2] (in words) is recorded as “micromolar range”.
